Read-outs that look alike come from different tables or passages of the source.
What was measured:
[1] = target: recombinant human delta opioid receptor (Homo sapiens (Human), UniProt P41143); settings: Ki relative to nalbuphine
Description: (§1) Using conventional receptor binding assay techniques, several molecules were assayed to determine binding activity at kappa, mu and delta opioid subtypes of opioid receptors.
(§2) Cells were plated in 24 well plates at a density of 0.2-0.3*10^6 cells/well and washed with assay buffer containing 50 mM Tris.HCl and 5 mM MgCl2 (pH 7.4). Competition binding assays were conducted in whole cells incubated with increasing concentrations of test compounds in the presence of appropriate concentration of radioligand. 0.5 nM ^3H Naloxone, 0.5 nM ^3H Diprenorphine and 0.5 nM ^3H DPDPE were used as the competing radioligands for mu, kappa and delta receptors respectively. Incubations were carried out for two hours at room temperature using triplicate wells at each concentration. At the end of the incubation, cells were washed with 50 mM Tris HCl (pH 8.0), solubilized with NaOH and bound radioactivity was measured using a scintillation counter.
(§3) Specific binding is determined by subtraction of the cpm bound in the presence of 50-100× excess of cold ligand. Binding data assays were analyzed using GraphPad Prism 4.0 and IC50 is generated by non-linear regression from dose-response curves.

[2] = target: T1, recombinant human mu opioid receptor (Homo sapiens (Human), UniProt P35372); type: binding
Description: as §1, §2, §3

[3] = Oral pharmacokinetics in Sprague-Dawley rats; settings: male, rat, plasma, 5 mg/kg
[4] = in vivo; settings: male, Sprague-Dawley, rat, plasma, iv, 1 mg/kg
[5] = in vivo; settings: male, Sprague-Dawley, rat, plasma, 5 mg/kg
[6] = target: cloned human mu opioid receptor (Homo sapiens (Human), UniProt P35372); assay: cell-based
Description: The efficacy of the various PEG-opioid conjugates was measured by their ability to inhibit cAMP formation following receptor activation. Studies were conducted in CHO cells heterologously expressing the cloned human mu, kappa or delta opioid receptors. cAMP was measured using a cAMP HiRange homogenous time-resolved fluorescence assay (HTRF Assay), that is based on a competitive immunoassay principle (Cisbio, Cat.#62AM6PEC).
Briefly, suspensions of cells expressing either the mu, kappa or delta opioid receptors were prepared in buffer containing 0.5 mM isobutyl-methyl xanthine (IBMX). […] EC50 values were calculated for each compound from a sigmoidal dose-response plot of concentrations versus maximum response. To determine if the compounds behaved as full or partial agonists in the system, the maximal response at the highest tested concentrations of compounds were compared to that produced by a known full agonist.

[7] = Intravenous pharmacokinetics in Sprague-Dawley rats
[8] = test system: CD-1 male mice; assay: Phenylquinone writhing analgesic assay; type: in vivo, mouse; settings: pretreatment 30 min before PQ
Description: Mice were treated according to standard protocols. Mice were given a single “pretreatment” dose of a compound lacking covalent attachment of a water-soluble, non-peptidic oligomer (i.e., non-PEG oligomer-modified parent molecule), a corresponding version comprising the compound covalently attached to a water-soluble, non-peptidic oligomer (i.e., the conjugate), or control solution (IV, SC, IP or orally) thirty minutes prior to the administration of the phenylquinone (PQ) solution. Each animal was given an IP injection of an irritant (phenylquinone, PQ) that induces “writhing” which may include: contractions of the abdomen, twisting and turning of the trunk, arching of the back, and the extension of the hindlimbs. Each animal was given an IP injection of PQ (1 mg/kg PQ, 0.1 mL/10 g bodyweight). After the injection, the animals were returned to their observation enclosure and their behavior was observed. Contractions were counted between 35 and 45 minutes after the “pretreatment”. The animals were used once. Each tested article was dosed at a range between 0.1 and 100 mg/kg (n=5-10 animals/dose).

[9] = target: T1, recombinant human mu opioid receptor; type: binding; remark: listed apart in the source
Description: Radioligand displacement was measured using scintillation proximity assays (SPA).
Briefly, serial dilutions of the test compounds were placed in a 96-well plate to which were added SPA beads, membrane and radioligand. The assay conditions for each opioid receptor subtype are described in Table 10 below. The plates were incubated for 8 hours-overnight at room temperature, spun at 1000 rpm to pellet the SPA beads, and radioactivity was measured using the TopCount® microplate Scintillation counter. Specific binding at each concentration of test compound was calculated by subtracting the non-specific binding measured in the presence of excess cold ligand. IC50 values were obtained by non-linear regression of specific binding versus concentration curves and Ki values were calculated using Kd values that were experimentally pre-determined for each lot of membrane preparations.

[10] = inhibition of cAMP formation, 3 μM forskolin, CHO cells
[11] = male, Sprague-Dawley, rat, plasma, iv, 1 mg/kg
[12] = inhibition of cAMP formation, maximal response vs known full agonist
[13] = SPA, CHO-K1 membranes, [3H]DAMGO 6 nM
[14] = hydroxycodone series, IV 1 mg/kg, rats, Mean ± SD

Sequence of recombinant human delta opioid receptor (P41143 whole entry, looked up): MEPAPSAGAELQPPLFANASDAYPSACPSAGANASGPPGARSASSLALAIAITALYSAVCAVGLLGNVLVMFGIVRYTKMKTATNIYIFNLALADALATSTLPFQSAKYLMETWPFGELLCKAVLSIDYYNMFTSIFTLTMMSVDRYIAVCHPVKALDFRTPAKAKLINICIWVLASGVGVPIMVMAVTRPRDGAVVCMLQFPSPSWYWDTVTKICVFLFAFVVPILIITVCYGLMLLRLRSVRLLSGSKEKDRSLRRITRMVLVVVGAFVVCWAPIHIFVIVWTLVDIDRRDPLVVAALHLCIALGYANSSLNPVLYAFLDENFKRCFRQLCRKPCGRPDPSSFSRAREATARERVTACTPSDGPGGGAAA

Structure (SMILES) | EC50 [6, 10] [nM] | MU OPIOID RECEPTOR % max effect [6, 12] [%] | Ki [9, 13] [nM] | AUCall [7, 14] [ng·min/mL] | AUCinf [7, 14] [ng·min/mL] | CL [7, 14] [mL/min/kg] | Cmax [7, 14] [ng/mL] | MRTlast [7, 14] [min] | T1/2(z) [7, 14] [min] | Vss [7, 14] [L/kg] | other results
COCCOCCOCCOCCO[C@H]1CC[C@@]2(O)[C@H]3Cc4ccc(O)c5c4[C@@]2(CCN3CC2CCC2)[C@H]1O5 [6-O-mPEG4-Nalbuphine, 6-O-mPEG4-nalbuphine] | – | – | – | – | – | – | – | – | – | – | Fold vs Nalbuphine At DELTA [1]: 0.47; Fold vs Nalbuphine At MU [2]: 1.23
COc1ccc2c3c1O[C@H]1[C@@H](O)C=C[C@H]4[C@@H](C2)N(C)CC[C@@]341 [Codeine] | – | – | – | – | – | – | – | – | – | – | Tmax [3]: 15 min; AUC [4]: 183 ng·h/mL; AUC(0-inf) [4]: 190 ng·h/mL; Cmax [4]: 469 ± 20.4 ng/mL; MRT last [4]: 40.2 min; Vd [4]: 4.14 ± 0.7 L/kg; clearance [4]: 89.7 ± 15.3 mL/min/kg; bioavailability ([5]; oral): 0.52%; AUC ([5]; po): 5.47 ng·h/mL; AUC(0-inf) ([5]; po): 7.18 ng·h/mL; Cmax ([5]; po): 6.24 ± 2.51 ng/mL; MRT last ([5]; po): 33.2 min
COc1ccc2c3c1O[C@H]1C(O)CC[C@@]4(O)[C@@H](C2)N(C)CC[C@]314 (stereo partly drawn) [Hydroxycodone, α-6-hydroxycodone, reference compound] | 3160 | – | – | – | – | – | – | – | – | – | –
COc1ccc2c3c1O[C@H]1C(=O)CC[C@@]4(O)[C@@H](C2)N(C)CC[C@]314 [Oxycodone, reference compound] | – | – | – | – | – | – | – | – | – | – | AUC [3]: 75.3 ng·h/mL; Cmax [3]: 25.5 ± 1.86 ng/mL; MRT last [3]: 179 min; Tmax [3]: 15 min; Emax ([6]; CHO, read-out: MU OPIOID RECEPTOR % max effect): 95%; AUC [7, 11]: 213 ng·h/mL; AUC(0-inf) [7, 11]: 217 ng·h/mL; Cmax [7, 11]: 495 ± 56 ng/mL; MRT last [7, 11]: 37 min; clearance [7, 11]: 77.1 ± 6.26 mL/min/kg; half-life [7, 11]: 47 ± 3.99 min
COCCO[C@H]1CC[C@@]2(O)[C@H]3Cc4ccc(OC)c5c4[C@@]2(CCN3C)[C@H]1O5 [α-6-mPEG1-O-Hydroxycodone, α-6-mPEG1-O-hydroxycodone] | 3840 | 102 | 654 | – | – | – | – | – | – | – | ED50 (mPEGn-O-HydroxyCodone series) [8]: 6.064 mg/kg
COCCOCCO[C@H]1CC[C@@]2(O)[C@H]3Cc4ccc(OC)c5c4[C@@]2(CCN3C)[C@H]1O5 [α-6-mPEG2-O-Hydroxycodone, α-6-mPEG2-O-hydroxycodone] | 5000 | 101 | 632 | 12000 ± 1610 | 12200 ± 1650 | 83.3 ± 10.8 | 513 ± 48.8 | 37.0 ± 2.60 | 44.6 ± 1.80 | 3.36 ± 0.298 | –
COCCOCCOCCO[C@H]1CC[C@@]2(O)[C@H]3Cc4ccc(OC)c5c4[C@@]2(CCN3C)[C@H]1O5 [α-6-mPEG3-O-Hydroxycodone, α-6-mPEG3-O-hydroxycodone] | 2830 | 108 | 775 | 13800 ± 1050 | – | 71.7 ± 4.99 | 746 ± 2.08 | 32.5 ± 1.92 | 48.5 ± 7.83 | 2.62 ± 0.206 | –
COCCOCCOCCOCCO[C@H]1CC[C@@]2(O)[C@H]3Cc4ccc(OC)c5c4[C@@]2(CCN3C)[C@H]1O5 [α-6-mPEG4-O-Hydroxycodone, α-6-mPEG4-O-hydroxycodone] | – | – | – | – | 11600 ± 827 | 86.5 ± 6.36 | 537 ± 31.0 | 35.6 ± 2.88 | 43.6 ± 3.27 | 3.34 ± 0.113 | ED50 (mPEGn-O-HydroxyCodone series) [8]: 17.31 mg/kg; EC50 [6]: 3720 nM; MU OPIOID RECEPTOR % max effect [6]: 109%; Ki [9]: 893 nM
COCCOCCOCCOCCOCCO[C@H]1CC[C@@]2(O)[C@H]3Cc4ccc(OC)c5c4[C@@]2(CCN3C)[C@H]1O5 [α-6-mPEG5-O-Hydroxycodone, α-6-mPEG5-O-hydroxycodone] | 5040 | 108 | 1860 | 16900 ± 1800 | 17700 ± 1990 | 57.0 ± 6.07 | – | 46.2 ± 1.86 | 62.1 ± 3.85 | 3.30 ± 0.184 | –
